Results taken from patent publication US20160367511A1, “EFFICACY OF DIETARY DHA-PHOSPHOLIPID FOR BRAIN DHA AND DPA ACCRETION IN NEONATES” (N.V. NUTRICIA, priority 2013, published 2016).

Settings: both, Yorkshire x Landrace cross sows bred with Hampshire boars, pig, in vivo, 6 days
Procedure: The TAG tracer (TAG-^13C-DHA) had ^13C-DHA in the sn-2 position with unlabeled 16:0 in the sn-1 and sn-3 positions. The tracer representative for PL was phosphatidylcholine (PC) with ^13C-DHA in the sn-2 position and unlabeled 16:0 in the sn-1 position (PC-^13C-DHA).
Sows (Yorkshire and Landrace cross) were bred with Hampshire boars. After birth, piglets were left to nurse with the sow for at least 48 hours. Twenty piglets, 2 to 4 days of age, were chosen for the study based on the following criteria: weight (about 2.0 kg), gender (10 males and 10 females), health (active and apparently normal, and not the smallest animal in the litter) and sow. Piglets were given a unique number/color combination identifier and then were transported to Large Animal Research and Teaching Unit (LARTU), Cornell University.
At the study site, piglets were housed in individual stainless steel cages and were placed on a single fully balanced commercially available young farm animal milk replacer formula immediately upon arrival.
On day 16 of life, 16 robust piglets were assigned to two dosing groups balanced with respect to gender, weight, and age but otherwise distributed randomly. Group PC were orally dosed with PC-^13C-DHA; Group TG were dosed with TG-^13C-DHA.
Doses were prepared by dissolving CHC13 solutions of PC-^13C-DHA or TAG-^13C-DHA in about 1 mL of refined olive oil and driving off the CHCl3 by gentle heating under flowing dry N2 over 4 hours. The resulting olive oils were carefully placed on the surface of a few mL of reconstituted piglet formula and sonicated until homogeneous. The resulting labeled formula was split into 1 to 2 mL aliquots gravimetrically and administered orally to piglets, followed by several washes of the vials containing the labeled formulas, at the beginning of a feed. Care was taken to insure all of the labeled formula and the washes, consisting of a total of up to 10 mL, were swallowed by the piglets. Piglets were then provided with their normal meal of 500 mL milk replacer which they routinely consume completely. Doses to piglets corresponded to about 20 mg ^13C-DHA delivered in PC and 86 mg of ^13C-DHA delivered in TAG.
Six days after the dose, and on a single day after 20 days of formula, all piglets were euthanized by exsanguination under anesthesia. Blood for fatty acid analysis was collected in tubes with EDTA and spun to prepare red blood cells. […] A piece was immediately used for preparation of synaptosomes, and the remaining grey matter was flash frozen for fatty acid analysis. Retina, heart, liver, biceps femoris muscle and kidney were also harvested, and all tissues were flash frozen and stored at −80° C. until prepared for analysis. […]

CC/C=C\C/C=C\C/C=C\C/C=C\C/C=C\C/C=C\CCC(=O)O [^13C-DHA, docosahexaenoic acid]
13C-DHA relative to 13C-DPA in grey matter: about 8 fold
13C-DHA relative to 13C-DPA in liver: 40 fold
13C-DHA relative to DPAn-3 in retina: 6.3 fold
liver 13C-DHA relative to grey matter 13C-DHA: about 20 fold
